In patent US10526316B2, “Quinoxaline and pyridopyrazine derivatives as PI3Kβ inhibitors” (Janssen Pharmaceutica NV, priority 2015, dated 2020):

Tests used:
[1] = target: T1, PI3Kβ (Homo sapiens, UniProt P42338); experiment: Enzyme binding assay (KINOMEscan, DiscoveRx); details: PIK3Cβ_h, read-out: Kd PIK3Cβ_h
T1 construct: purchased DiscoveRx Corporation, San Diego (contract service, KINOMEscan)
How it was run: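 Using the KINOMEscan format, the enzyme binding affinity of each compound was determined. Each value is the inhibitor binding constant, Kd (nM).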

[2] = target: T2, PI3Kδ (Homo sapiens, UniProt O00329); experiment: Enzyme binding assay (KINOMEscan, DiscoveRx); details: PIK3Cδ_h
T2 construct: purchased DiscoveRx Corporation, San Diego (contract service, KINOMEscan)
T2 sequence (O00329 1-1044): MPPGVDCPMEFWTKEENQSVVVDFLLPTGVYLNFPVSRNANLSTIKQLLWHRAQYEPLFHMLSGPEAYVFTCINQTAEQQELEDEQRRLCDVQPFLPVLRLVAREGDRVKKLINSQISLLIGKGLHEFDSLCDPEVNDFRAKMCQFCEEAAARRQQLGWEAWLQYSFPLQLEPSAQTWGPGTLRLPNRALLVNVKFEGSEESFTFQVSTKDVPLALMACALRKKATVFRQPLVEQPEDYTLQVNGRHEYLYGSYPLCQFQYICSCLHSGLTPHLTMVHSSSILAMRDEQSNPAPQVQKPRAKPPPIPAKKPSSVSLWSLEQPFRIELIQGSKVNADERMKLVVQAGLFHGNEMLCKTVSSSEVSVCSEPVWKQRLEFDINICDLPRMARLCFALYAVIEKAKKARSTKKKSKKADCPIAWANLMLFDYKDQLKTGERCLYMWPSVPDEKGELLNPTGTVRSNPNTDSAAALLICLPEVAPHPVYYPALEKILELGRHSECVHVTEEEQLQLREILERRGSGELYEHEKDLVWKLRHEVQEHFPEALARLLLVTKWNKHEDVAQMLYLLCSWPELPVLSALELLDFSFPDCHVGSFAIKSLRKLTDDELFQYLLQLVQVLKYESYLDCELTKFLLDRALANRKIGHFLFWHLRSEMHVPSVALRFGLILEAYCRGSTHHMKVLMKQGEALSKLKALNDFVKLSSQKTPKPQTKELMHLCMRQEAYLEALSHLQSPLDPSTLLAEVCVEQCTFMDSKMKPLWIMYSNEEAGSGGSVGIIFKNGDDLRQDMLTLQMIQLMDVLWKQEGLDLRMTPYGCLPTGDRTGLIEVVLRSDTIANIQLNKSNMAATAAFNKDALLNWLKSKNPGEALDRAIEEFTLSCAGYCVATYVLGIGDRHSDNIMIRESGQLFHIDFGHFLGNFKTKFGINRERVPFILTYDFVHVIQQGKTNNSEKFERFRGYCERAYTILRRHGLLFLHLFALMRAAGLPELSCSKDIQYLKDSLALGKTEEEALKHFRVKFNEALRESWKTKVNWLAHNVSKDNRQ
How it was run: (§1)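 Uses KINOMEscan technology to determine binding affinity toward the kinase enzymes.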

[3] = target: T3, kinase enzymes (Homo sapiens, UniProt P42336); experiment: Enzyme binding assay (KINOMEscan, DiscoveRx), further kinases of Table A; details: PIK3Cα_h
T3 construct: purchased DiscoveRx Corporation, San Diego (contract service, KINOMEscan)
How it was run: as §1

[4] = target: T4, kinase enzymes (Homo sapiens, UniProt P42345); experiment: as above; details: MTOR_h
T4 construct: purchased DiscoveRx Corporation, San Diego (contract service, KINOMEscan)
How it was run: as §1

[5] = target: T5, kinase enzymes (Homo sapiens, UniProt P48736); experiment: as above; details: PIK3Cγ_h
T5 construct: purchased DiscoveRx Corporation, San Diego (contract service, KINOMEscan)
How it was run: as §1

[6] = system: Akt phosphorylated at Ser473 in PC-3 cells; experiment: Cellular assay: phosphorylation of Akt at Ser473 in PC-3 cells (MSD ELISA); type: cell-based; details: Homo sapiens, PC-3, 1 h, PC-3 cells, 60 min compound incubation, MSD ELISA; read-out: IC50 pAkt_S473
How it was run: (§2)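 Compound treatment of PC-3 cells lasted 60 min at 37° C (0.3% DMSO). Lysates were then applied to plates carrying capture antibodies for the relevant phospho-site, and bound Akt was detected with an electrochemiluminescent anti-total Akt antibody; IC50s derive from five-point curves.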

[7] = system: Akt phosphorylated at Thr308 in PC-3 cells; experiment: Cellular assay: phosphorylation of Akt at Thr308 in PC-3 cells (MSD ELISA); type: cell-based; details: Homo sapiens, PC-3, 1 h, PC-3 cells, 60 min compound incubation, MSD ELISA; read-out: IC50 pAkt_Thr308
How it was run: as §2

T5 sequence (P48736 whole entry): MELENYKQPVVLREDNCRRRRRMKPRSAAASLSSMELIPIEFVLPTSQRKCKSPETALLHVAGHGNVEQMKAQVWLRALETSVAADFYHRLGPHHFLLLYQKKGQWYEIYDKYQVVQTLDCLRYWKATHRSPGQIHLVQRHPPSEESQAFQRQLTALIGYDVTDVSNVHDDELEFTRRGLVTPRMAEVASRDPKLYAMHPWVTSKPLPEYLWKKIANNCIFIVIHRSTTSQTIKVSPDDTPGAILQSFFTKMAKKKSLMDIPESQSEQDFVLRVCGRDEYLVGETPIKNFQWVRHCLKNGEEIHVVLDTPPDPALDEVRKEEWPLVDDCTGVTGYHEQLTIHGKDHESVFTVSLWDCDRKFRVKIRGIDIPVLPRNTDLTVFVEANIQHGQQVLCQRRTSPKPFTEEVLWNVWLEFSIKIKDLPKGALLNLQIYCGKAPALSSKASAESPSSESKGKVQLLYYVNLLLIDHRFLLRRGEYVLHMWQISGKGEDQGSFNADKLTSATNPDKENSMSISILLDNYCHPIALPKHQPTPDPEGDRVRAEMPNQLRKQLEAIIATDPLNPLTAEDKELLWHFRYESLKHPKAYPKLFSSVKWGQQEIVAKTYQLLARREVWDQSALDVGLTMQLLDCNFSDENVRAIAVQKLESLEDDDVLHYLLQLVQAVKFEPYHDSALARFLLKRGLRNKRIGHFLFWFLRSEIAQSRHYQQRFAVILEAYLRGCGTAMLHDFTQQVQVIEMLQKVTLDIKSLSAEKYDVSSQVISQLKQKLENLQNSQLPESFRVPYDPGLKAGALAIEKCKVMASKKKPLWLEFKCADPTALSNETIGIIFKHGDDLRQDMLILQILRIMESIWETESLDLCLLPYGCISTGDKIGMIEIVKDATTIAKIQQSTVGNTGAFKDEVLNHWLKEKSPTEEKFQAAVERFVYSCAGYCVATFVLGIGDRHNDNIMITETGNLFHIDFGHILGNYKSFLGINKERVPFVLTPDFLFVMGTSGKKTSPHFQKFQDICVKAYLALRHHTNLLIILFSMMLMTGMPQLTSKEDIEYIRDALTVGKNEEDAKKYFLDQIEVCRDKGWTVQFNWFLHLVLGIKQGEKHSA
T3 sequence (P42336 whole entry): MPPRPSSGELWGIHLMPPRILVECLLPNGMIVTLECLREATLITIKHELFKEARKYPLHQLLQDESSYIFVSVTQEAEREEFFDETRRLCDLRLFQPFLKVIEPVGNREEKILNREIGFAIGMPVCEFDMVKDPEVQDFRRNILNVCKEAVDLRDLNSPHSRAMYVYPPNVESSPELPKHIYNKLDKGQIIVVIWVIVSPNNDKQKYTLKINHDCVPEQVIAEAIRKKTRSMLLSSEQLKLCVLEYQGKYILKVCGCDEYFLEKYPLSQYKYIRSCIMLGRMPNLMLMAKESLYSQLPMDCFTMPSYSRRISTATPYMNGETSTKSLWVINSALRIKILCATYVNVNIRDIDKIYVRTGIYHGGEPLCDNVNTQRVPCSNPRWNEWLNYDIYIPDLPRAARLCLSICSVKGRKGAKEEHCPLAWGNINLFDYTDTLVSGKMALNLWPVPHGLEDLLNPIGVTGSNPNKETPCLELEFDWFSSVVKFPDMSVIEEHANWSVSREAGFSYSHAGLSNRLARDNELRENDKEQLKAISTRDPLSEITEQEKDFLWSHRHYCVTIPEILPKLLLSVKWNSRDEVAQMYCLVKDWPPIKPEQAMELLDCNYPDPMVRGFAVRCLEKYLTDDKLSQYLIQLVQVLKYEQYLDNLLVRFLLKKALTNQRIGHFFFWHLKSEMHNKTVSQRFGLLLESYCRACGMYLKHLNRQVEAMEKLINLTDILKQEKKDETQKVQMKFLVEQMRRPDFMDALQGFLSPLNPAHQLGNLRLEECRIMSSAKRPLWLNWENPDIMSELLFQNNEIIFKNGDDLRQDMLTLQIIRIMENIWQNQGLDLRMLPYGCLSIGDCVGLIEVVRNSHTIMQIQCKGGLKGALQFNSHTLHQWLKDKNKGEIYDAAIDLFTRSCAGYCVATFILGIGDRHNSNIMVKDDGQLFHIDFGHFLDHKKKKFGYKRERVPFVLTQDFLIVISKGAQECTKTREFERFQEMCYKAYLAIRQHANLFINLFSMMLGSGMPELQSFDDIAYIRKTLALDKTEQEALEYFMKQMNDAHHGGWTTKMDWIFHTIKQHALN
T1 sequence (P42338 whole entry): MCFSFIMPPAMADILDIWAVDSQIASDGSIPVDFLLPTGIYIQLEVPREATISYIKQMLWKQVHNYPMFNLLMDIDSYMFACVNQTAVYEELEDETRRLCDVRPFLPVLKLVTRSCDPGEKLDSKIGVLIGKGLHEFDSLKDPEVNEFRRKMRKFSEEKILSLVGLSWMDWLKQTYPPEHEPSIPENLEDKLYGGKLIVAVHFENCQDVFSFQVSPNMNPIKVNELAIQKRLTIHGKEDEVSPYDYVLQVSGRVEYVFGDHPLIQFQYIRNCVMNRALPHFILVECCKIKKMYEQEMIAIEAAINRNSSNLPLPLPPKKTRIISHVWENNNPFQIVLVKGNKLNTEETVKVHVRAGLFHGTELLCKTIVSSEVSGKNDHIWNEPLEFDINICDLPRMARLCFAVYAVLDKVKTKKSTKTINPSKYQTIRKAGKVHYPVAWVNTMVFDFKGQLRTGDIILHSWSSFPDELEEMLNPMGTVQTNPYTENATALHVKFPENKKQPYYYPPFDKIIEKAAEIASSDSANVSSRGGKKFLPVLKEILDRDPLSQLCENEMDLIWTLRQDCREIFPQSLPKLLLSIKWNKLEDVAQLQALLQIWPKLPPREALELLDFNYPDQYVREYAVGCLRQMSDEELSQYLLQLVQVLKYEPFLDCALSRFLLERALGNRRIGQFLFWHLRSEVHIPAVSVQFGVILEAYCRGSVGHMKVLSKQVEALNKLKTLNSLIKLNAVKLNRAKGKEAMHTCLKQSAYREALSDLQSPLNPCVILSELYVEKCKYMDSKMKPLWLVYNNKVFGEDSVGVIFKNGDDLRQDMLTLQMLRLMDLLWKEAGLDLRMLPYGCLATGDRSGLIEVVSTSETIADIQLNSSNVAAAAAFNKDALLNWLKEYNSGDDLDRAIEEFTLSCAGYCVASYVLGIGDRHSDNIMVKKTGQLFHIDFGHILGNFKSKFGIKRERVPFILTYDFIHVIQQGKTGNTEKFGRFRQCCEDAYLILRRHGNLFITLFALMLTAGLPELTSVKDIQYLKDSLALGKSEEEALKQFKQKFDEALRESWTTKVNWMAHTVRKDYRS

CC(Sc1ccccc1)c1cc(C(=O)N(C)C)cc2ncc(N3CCOCC3)nc12 (stereo not drawn) [Compound 135]
Kd [1]: 195 nM
Kd [2]: 3800 nM
Kd [3]: 10000 nM
Kd [4]: 11200 nM
Kd [5]: 17400 nM
IC50 [6]: > 513 nM
IC50 [7]: > 513 nM
melting point: 144 °C

CC1CN(c2cnc3cc(C(=O)N(C)C)cc(C(C)Nc4cccc(F)c4)c3n2)CCO1 (stereo not drawn) [Compound 136]
Kd [1]: 3 nM
Kd [2]: 355 nM
Kd [3]: 2340 nM
Kd [4]: 15100 nM
Kd [5]: 5130 nM
IC50 [6]: 178 nM
IC50 [7]: 65 nM
melting point: 184 °C

CCN1CCN(C(=O)c2cc(C3CCCN3c3cc(F)cc(F)c3)c3nc(N4CCOCC4)cnc3c2)CC1 (stereo not drawn) [Compound 142]
Kd [1]: 0.5 nM
Kd [2]: 59 nM
Kd [3]: 209 nM
Kd [4]: > 30200 nM
Kd [5]: 741 nM
IC50 [6]: 10 nM
IC50 [7]: 7 nM
melting point: 80 °C

CCN1CCN(C(=O)c2cc(C(C)Nc3cc(F)cc(F)c3)c3nc(N4CCOCC4)cnc3c2)CC1 (stereo not drawn) [Compound 143]
Kd [1]: 2 nM
Kd [2]: 389 nM
Kd [3]: 2820 nM
Kd [4]: > 30200 nM
Kd [5]: 9550 nM
IC50 [6]: 102 nM
IC50 [7]: 30 nM
melting point: 80 °C

CC(Nc1cc(F)cc(F)c1)c1cc(C(=O)N2CCN(C)CC2)cc2ncc(N3CCOCC3)nc12 (stereo not drawn) [Compound 144]
Kd [1]: 2 nM
Kd [2]: 437 nM
Kd [3]: 1740 nM
Kd [4]: > 30200 nM
Kd [5]: 5620 nM
IC50 [6]: 59 nM
IC50 [7]: 28 nM
melting point: 80 °C

CC(Nc1cc(F)cc(F)c1)c1cc(C(=O)N(C)CCO)cc2ncc(N3CCOCC3)nc12 (stereo not drawn) [Compound 145]
Kd [1]: 1 nM
Kd [2]: 102 nM
Kd [3]: 537 nM
Kd [4]: 23400 nM
Kd [5]: 1860 nM
IC50 [6]: ~32 nM
IC50 [7]: 9 nM
melting point: 80 °C

CC(Nc1cc(F)cc(Cl)c1)c1cc(C(=O)N2CCOCC2)cc2ncc(N3CCOCC3)nc12 (stereo not drawn) [Compound 146]
Kd [1]: 2 nM
Kd [2]: 933 nM
Kd [3]: 1910 nM
Kd [4]: > 30200 nM
Kd [5]: 8130 nM
IC50 [6]: 83 nM
IC50 [7]: 38 nM
melting point: 80 °C

CNCCNC(=O)c1cc(C(C)Nc2cc(F)cc(Cl)c2)c2nc(N3CCOCC3)cnc2c1 (stereo not drawn) [Compound 147]
Kd [1]: 0.4 nM
Kd [2]: 129 nM
Kd [3]: 776 nM
Kd [4]: > 30200 nM
Kd [5]: 1150 nM
IC50 [6]: 10 nM
IC50 [7]: 6 nM
melting point: 80 °C

CC(Nc1cc(F)cc(F)c1)c1cc(C(=O)NCCOCCN)cc2ncc(N3CCOCC3)nc12 (stereo not drawn) [Compound 149]
Kd [1]: 2 nM
Kd [2]: 398 nM
Kd [3]: 2950 nM
Kd [4]: > 30200 nM
Kd [5]: 2340 nM
IC50 [6]: 251 nM
IC50 [7]: 138 nM
melting point: 80 °C

CC(Nc1ccccc1)c1cc(C(=O)N(C)C)cc2ncc(N3CCOCC3)nc12 (stereo not drawn) [Compound 150]
Kd [1]: 3 nM
Kd [2]: 501 nM
Kd [3]: 2880 nM
Kd [4]: > 30200 nM
Kd [5]: 3720 nM
IC50 [6]: 138 nM
IC50 [7]: 91 nM
melting point: 110 °C

CC(Oc1ccccc1)c1cc(C(=O)N(C)C)cc2ncc(N3CCOCC3)nc12 (stereo not drawn) [Compound 151]
Kd [1]: 8 nM
Kd [2]: 813 nM
Kd [3]: 3630 nM
Kd [4]: > 30200 nM
Kd [5]: 8710 nM
IC50 [6]: 490 nM
IC50 [7]: 66 nM
melting point: 80 °C

CC(Nc1cc(F)cc(F)c1)c1cncc2ncc(N3CCOCC3)nc12 (stereo not drawn) [Compound 153]
Kd [1]: 8 nM
Kd [2]: 1170 nM
Kd [3]: 5370 nM
Kd [4]: 16200 nM
Kd [5]: 2690 nM
IC50 [6]: 316 nM
IC50 [7]: 316 nM
melting point: 90 °C

CC(Nc1cccc(C#N)c1)c1cc(C(=O)N(C)C)cc2ncc(N3CCOCC3)nc12 (stereo not drawn) [Compound 155]
Kd [1]: 6 nM
Kd [2]: 759 nM
Kd [3]: 2140 nM
Kd [4]: > 30200 nM
Kd [5]: 6610 nM
IC50 [6]: 437 nM
IC50 [7]: 339 nM
melting point: 186 °C

CC(Nc1cc(F)cc(F)c1)c1cc(CNCC(F)F)cc2ncc(N3CCOCC3)nc12 (stereo not drawn) [Compound 164]
Kd [1]: 4 nM
Kd [2]: 1100 nM
Kd [3]: 2400 nM
Kd [4]: > 30200 nM
Kd [5]: 13800 nM
IC50 [6]: 145 nM
IC50 [7]: 71 nM
melting point: 116 °C

CC(Nc1cc(F)cc(F)c1)c1cc(Br)cc2ncc(N3CCOCC3)nc12 (stereo not drawn) [Compound 167]
Kd [1]: 26 nM
Kd [2]: 7760 nM
Kd [3]: 17400 nM
Kd [4]: > 30200 nM
Kd [5]: 12900 nM
IC50 [6]: > 513 nM
IC50 [7]: ~427 nM
melting point: 80 °C

CC(Nc1cc(F)cc(F)c1)c1cc(CN2CCOCC2)cc2ncc(N3CCOCC3)nc12 (stereo not drawn) [Compound 168]
Kd [1]: 17 nM
Kd [2]: 1860 nM
Kd [3]: 3630 nM
Kd [4]: > 30200 nM
Kd [5]: > 30200 nM
IC50 [6]: 214 nM
IC50 [7]: 112 nM
melting point: 165 °C

CC(Nc1cc(F)cc(F)c1)c1cc(C(=O)NC(C)(C)CO)cc2ncc(N3CCOCC3)nc12 (stereo not drawn) [Compound 169]
Kd [1]: 8 nM
Kd [2]: 1120 nM
Kd [3]: 4070 nM
Kd [4]: 18600 nM
Kd [5]: 5370 nM
IC50 [6]: 200 nM
IC50 [7]: 102 nM
melting point: 217 °C

CC(Nc1cc(F)c(F)c(F)c1)c1cc(C(=O)O)cc2ncc(N3CCOCC3)nc12 (stereo not drawn) [Compound 170]
Kd [1]: 5 nM
Kd [2]: 288 nM
Kd [3]: 617 nM
Kd [4]: 4370 nM
Kd [5]: 2240 nM
IC50 [6]: > 513 nM
IC50 [7]: > 513 nM
melting point: 285 °C

CC(Nc1cc(F)cc(F)c1)c1cc(C(=O)N2CCN(CC(F)(F)F)CC2)cc2ncc(N3CCOCC3)nc12 (stereo not drawn) [Compound 171]
Kd [1]: 3 nM
Kd [2]: 575 nM
Kd [3]: 2190 nM
Kd [4]: > 30200 nM
Kd [5]: > 30200 nM
IC50 [6]: 155 nM
IC50 [7]: 102 nM
melting point: 125 °C

CC(Nc1cc(F)cc(F)c1)c1cc(CNCCS(C)(=O)=O)cc2ncc(N3CCOCC3)nc12 (stereo not drawn) [Compound 173]
Kd [1]: 1 nM
Kd [2]: 372 nM
Kd [3]: 832 nM
Kd [4]: 24500 nM
Kd [5]: 3550 nM
IC50 [6]: 78 nM
IC50 [7]: 52 nM
melting point: 80 °C

CC(Nc1cc(F)cc(F)c1)c1cc(C(=O)N(C)CCN(C)C)cc2ncc(N3CCOCC3)nc12 (stereo not drawn) [Compound 180]
Kd [1]: 0.1 nM
Kd [2]: 49 nM
Kd [3]: 891 nM
Kd [4]: > 30200 nM
Kd [5]: 2190 nM
IC50 [6]: 3 nM
IC50 [7]: 1 nM
melting point: 148 °C

CC(Nc1cc(F)cc(F)c1)c1cc(C2=NC(C)(C)CO2)cc2ncc(N3CCOCC3)nc12 (stereo not drawn) [Compound 186]
Kd [1]: 10 nM
Kd [2]: 1780 nM
Kd [3]: 6310 nM
Kd [4]: > 30200 nM
Kd [5]: 27500 nM
IC50 [6]: 339 nM
IC50 [7]: 182 nM
melting point: 80 °C

CC(Oc1cc(F)cc(F)c1)c1cc(C(=O)NCCO)cc2ncc(N3CCOCC3)nc12 (stereo not drawn) [Compound 198]
Kd [1]: 22 nM
Kd [2]: 3160 nM
Kd [3]: 11200 nM
Kd [4]: > 30200 nM
Kd [5]: 15500 nM
IC50 [6]: > 513 nM
IC50 [7]: 200 nM
melting point: 171 °C

COC(=O)c1cc(C(C)Oc2ccc(F)c(F)c2)c2nc(N3CCOCC3)cnc2c1 (stereo not drawn) [Compound 209]
Kd [1]: 316 nM
Kd [2]: 11500 nM
Kd [3]: > 30200 nM
Kd [4]: > 30200 nM
Kd [5]: 17000 nM
IC50 [6]: > 513 nM
IC50 [7]: > 513 nM
melting point: 183 °C
